Assay results published in ChEMBL document CHEMBL1201862, “PubChem BioAssay data set” (2004).
Active and inactive are the calls of the source.

How the values were obtained:
Cytochrome P450 3A4 = Cytochrome P450 3A4 (Homo sapiens, UniProt P08684); conditions: Potency;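 note: confirmatory qHTS run detecting inhibitors and substrates of CYP3A4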
[1] = target: T1, High affinity choline transporter 1 (Homo sapiens, UniProt Q9GZV3); experiment: human choline transporter blockers, potency – cell-based, 5-point CRC, membrane potential dye, dose response (AID 504840); assay type: functional
T1 sequence (Q9GZV3 whole entry): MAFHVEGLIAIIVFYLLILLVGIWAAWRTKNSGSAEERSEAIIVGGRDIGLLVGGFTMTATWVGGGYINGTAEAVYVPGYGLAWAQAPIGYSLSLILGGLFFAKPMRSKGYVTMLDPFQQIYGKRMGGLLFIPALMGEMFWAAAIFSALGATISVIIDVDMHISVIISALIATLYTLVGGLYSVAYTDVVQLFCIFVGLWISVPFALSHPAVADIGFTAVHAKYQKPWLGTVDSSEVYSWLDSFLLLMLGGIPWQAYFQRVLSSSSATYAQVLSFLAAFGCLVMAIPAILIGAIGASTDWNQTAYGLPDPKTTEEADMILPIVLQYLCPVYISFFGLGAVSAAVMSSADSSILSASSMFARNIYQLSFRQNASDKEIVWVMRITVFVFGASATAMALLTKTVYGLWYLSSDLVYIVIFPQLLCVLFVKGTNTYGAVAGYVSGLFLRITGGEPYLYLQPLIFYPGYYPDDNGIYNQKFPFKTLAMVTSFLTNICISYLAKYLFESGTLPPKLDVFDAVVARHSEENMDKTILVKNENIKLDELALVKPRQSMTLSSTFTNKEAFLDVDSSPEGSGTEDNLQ

[2] = P. falciparum Dd2 growth inhibitors, dose response, SYBR Green, cherry-picked samples (AID 1159567); assay type: functional, cell-based
[3] = toxicity to human hepatoma HepG2 cells – cell-based, cherry-picked samples, cytotoxicity control, dose response (AID 1159577); assay type: functional
Large T antigen = Large T antigen (Simian virus 40, UniProt P03070); assay type: functional, Betapolyomavirus macacae;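 note: Confirmatory-stage PubChem screen for compounds that inhibit SV40 T antigen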
Chain of Large T antigen (P03070 whole entry): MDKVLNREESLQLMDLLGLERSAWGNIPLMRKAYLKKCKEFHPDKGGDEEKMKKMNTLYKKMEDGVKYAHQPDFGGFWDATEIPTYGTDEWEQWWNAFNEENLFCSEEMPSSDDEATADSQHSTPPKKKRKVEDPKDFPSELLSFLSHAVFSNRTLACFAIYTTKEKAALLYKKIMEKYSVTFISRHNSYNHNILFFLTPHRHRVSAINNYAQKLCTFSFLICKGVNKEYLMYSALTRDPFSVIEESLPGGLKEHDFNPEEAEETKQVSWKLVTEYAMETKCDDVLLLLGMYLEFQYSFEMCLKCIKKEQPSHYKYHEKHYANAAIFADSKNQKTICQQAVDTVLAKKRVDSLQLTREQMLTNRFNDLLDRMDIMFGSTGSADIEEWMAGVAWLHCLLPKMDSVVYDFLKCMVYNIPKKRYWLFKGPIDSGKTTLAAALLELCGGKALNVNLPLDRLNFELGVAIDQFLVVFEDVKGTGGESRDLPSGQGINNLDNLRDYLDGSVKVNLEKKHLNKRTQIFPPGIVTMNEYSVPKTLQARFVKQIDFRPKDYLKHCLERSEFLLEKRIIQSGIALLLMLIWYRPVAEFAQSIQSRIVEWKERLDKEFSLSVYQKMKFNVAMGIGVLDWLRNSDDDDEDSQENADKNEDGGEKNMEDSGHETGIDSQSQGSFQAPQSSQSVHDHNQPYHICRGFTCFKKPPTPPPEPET

[4] = target: Heat shock protein HSP 90-alpha (Homo sapiens, UniProt P07900); assay type: functional, organism-based
BJ [5] = experiment: BJ-TERT-LT-ST fibroblast viability loss – cell-based, RAS-independent, luminescence, dose response (AID 1935); assay type: functional; conditions: Homo sapiens;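 note: BJ fibroblasts immortalized with TERT plus LT and ST oncogenes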
[6] = DRD fibroblast viability loss – cell-based, non-viral oncogenic, luminescence, dose response (AID 1934); assay type: functional; conditions: Homo sapiens
[7] = HEK-293T viability loss after treatment – luminescence, T-cell screen hits, cytotoxicity control for TCR NF-kB inhibitor project, dose response (AID 489026); assay type: functional, cell-based;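 note: cells exposed to compound about 14 hours before the viability readout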
BJ [8] = experiment: cells; assay type: functional, cell-based; conditions: Homo sapiens
BJ [9] = experiment: BJ-TERT fibroblast viability loss – cell-based, RAS-independent, luminescence, dose response (AID 1933); assay type: functional; conditions: Homo sapiens
[10] = reduction of Shn3 3'UTR-driven luciferase in osteoblasts – cell-based, Clone20 osteoblasts, firefly luciferase, cherry-picked, dose response (AID 624132); assay type: functional;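 note: firefly luciferase luminescence from reporter carrying the Shn3 3'UTR in osteoblasts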
[11] = NIH3T3 cell viability loss – ATP luminescence, mouse fibroblasts, counter-screen, dose response (AID 2010); assay type: functional, cell-based;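 note: cells exposed to compound for about 90 hours before reading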
[12] = loss of viability in HepG2 cells – cell-based, CellTiter-Glo, cherry-picked, cytotoxicity control for Shn3 inhibitor project, dose response (AID 624134); assay type: functional
[13] = Trypanosoma cruzi growth suppression in host cells – NIH3T3 host cells, beta-gal luminescence, confirmation (AID 2044); assay type: functional, cell-based;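 note: intracellular parasites grown in NIH/3T3 mouse fibroblasts as host cells; luminescent beta-galactosidase reporter signal from transgenic T. cruzi replicating inside host cells; inhibitors lower the luminescence signal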
[14] = non-specific 3'UTR reporter inhibition in Clone20-Shn3RL – cell-based, Renilla luciferase, cherry-picked, counter-screen for Shn3 inhibitor project, dose response (AID 624133); assay type: functional
[15] = target: T2, Polyadenylate-binding protein 1 (Homo sapiens, UniProt P11940); experiment: MLLE binding blockers, Cy5 peptide tracer – biochemical, fluorescence polarization, Cy5-PAM2 peptide, secondary, miRNA deadenylation inhibitor project, dose response (AID 602260); assay type: functional; conditions: read-out: IC50_Mean
T2 sequence (P11940 whole entry): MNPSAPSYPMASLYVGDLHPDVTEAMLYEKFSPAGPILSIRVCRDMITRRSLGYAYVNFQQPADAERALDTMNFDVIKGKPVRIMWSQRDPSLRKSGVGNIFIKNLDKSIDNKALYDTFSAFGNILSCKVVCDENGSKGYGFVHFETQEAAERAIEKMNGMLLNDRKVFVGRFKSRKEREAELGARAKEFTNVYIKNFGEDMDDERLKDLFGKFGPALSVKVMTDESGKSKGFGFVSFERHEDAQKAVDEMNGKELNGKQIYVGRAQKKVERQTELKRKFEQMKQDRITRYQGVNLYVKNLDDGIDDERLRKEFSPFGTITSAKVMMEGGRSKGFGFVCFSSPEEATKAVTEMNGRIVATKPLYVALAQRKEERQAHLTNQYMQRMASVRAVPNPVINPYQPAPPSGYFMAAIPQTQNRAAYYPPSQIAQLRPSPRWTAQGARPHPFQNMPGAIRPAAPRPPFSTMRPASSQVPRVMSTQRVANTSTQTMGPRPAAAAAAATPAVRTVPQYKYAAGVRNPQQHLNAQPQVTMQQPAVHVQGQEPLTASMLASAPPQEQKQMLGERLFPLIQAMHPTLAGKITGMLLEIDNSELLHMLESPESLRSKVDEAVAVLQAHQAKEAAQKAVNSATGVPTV

[16] = target: T3, Heat shock factor protein 1 (Mus musculus, UniProt P38532); experiment: enhancement of HSF1-driven luciferase signal – cell-based, NIH3T3, luminescence, dose retest, confirmation (AID 435004); assay type: functional;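 note: stress induced by proteasome inhibitor MG132 added 30 min after compound; luciferase reporter driven by HSF1 response element in NIH3T3 cells; actives raise luminescence as potentiators of the MG132 stress response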
T3 sequence (P38532 whole entry): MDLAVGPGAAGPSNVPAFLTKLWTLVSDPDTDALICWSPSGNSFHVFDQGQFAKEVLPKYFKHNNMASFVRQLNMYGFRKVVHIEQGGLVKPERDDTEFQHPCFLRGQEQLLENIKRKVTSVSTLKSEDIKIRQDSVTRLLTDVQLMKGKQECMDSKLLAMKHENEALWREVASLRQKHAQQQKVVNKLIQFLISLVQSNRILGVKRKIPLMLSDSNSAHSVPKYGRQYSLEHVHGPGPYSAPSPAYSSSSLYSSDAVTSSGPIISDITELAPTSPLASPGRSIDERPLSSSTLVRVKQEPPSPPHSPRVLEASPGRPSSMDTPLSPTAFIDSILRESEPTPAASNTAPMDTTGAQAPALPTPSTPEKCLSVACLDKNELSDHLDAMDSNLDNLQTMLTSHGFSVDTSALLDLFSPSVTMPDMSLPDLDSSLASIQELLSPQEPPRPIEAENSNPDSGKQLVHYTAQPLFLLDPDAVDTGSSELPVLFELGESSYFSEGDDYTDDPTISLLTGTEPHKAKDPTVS

[17] = fluconazole-exposed Candida albicans growth modulators – fluorescence, retest, confirmation (AID 2467); assay type: functional, cell-based
[18] = NIH-3T3 fibroblast cytotoxicity, dose response, cytotoxicity control, cell-based, fluorescence, Alamar Blue, secondary assay (AID 2327); assay type: functional;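 note: NIH-3T3 mouse fibroblasts cultured with fluconazole at 8 µg/mL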
[19] = target: T4, Microphthalmia-associated transcription factor (Homo sapiens, UniProt O75030); experiment: reducers of TRPM1 reporter luminescence, concentration series – cell-based, SK-MEL-5, cherry-picked, set 3, MITF inhibitor project, dose response (AID 493073); assay type: functional;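 note: SK-MEL-5 melanoma cells with luciferase driven by the MITF target TRPM1 promoter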
T4 sequence (O75030 whole entry): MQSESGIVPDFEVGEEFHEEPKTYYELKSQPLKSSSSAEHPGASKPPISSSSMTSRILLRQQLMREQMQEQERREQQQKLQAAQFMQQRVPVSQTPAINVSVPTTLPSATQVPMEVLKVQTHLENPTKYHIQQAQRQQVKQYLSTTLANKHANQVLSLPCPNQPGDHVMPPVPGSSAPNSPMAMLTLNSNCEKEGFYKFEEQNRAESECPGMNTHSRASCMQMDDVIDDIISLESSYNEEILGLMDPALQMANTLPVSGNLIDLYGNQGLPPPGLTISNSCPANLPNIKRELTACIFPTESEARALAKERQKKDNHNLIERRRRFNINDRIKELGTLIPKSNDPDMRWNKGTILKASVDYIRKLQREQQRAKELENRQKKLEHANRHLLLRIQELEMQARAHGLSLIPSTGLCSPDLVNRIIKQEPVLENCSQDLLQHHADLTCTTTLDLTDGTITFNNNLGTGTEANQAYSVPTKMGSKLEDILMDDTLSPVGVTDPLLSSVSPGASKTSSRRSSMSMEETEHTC

[20] = target: T2, Polyadenylate-binding protein 1; experiment: MLLE domain peptide-binding blockers, IC50 – biochemical, fluorescence polarization, FITC-PAM2 peptide, dose response (AID 602259); assay type: functional; conditions: read-out: IC50_Mean
Nonstructural protein 1 = Nonstructural protein 1 (Influenza A virus, UniProt Q194T2); assay type: functional, Influenza A virus (A/California/07/2009(H1N1))
Chain of Nonstructural protein 1 (Q194T2 whole entry): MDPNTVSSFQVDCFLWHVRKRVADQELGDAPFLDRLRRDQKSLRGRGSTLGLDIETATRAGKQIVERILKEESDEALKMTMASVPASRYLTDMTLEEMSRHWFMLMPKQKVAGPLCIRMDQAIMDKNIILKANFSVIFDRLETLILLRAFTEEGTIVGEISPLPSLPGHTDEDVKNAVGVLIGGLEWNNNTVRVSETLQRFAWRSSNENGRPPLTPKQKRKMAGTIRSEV

[21] = target: T5, Zinc finger protein mex-5 (Caenorhabditis elegans, UniProt Q9XUB2); experiment: potency of MEX-5 RNA-binding blockers – biochemical, C. elegans, fluorescence polarization, dose response (AID 1960)
T5 sequence (Q9XUB2 whole entry): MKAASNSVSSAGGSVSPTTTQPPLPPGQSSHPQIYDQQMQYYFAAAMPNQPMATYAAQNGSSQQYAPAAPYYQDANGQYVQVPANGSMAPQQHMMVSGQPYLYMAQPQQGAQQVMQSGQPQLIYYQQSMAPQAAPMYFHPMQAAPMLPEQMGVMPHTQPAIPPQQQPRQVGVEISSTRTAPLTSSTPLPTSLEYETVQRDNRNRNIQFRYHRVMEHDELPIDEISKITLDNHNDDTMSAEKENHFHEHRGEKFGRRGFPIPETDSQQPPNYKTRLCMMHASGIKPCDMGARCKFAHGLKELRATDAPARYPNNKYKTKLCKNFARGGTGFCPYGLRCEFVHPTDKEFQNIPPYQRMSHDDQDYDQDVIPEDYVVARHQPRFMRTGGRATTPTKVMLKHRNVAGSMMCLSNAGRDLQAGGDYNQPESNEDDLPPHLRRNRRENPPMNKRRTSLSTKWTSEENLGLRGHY

[22] = target: T6, RNA-binding protein pos-1 (Caenorhabditis elegans, UniProt G5EF15); experiment: disruptors of C. elegans POS-1 RNA interaction – biochemical, fluorescence polarization, dose response (AID 1964);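 note: purified POS-1 fused to maltose binding protein made in E. coli; potency of compounds blocking POS-1 binding to fluorescent RNA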
T6 sequence (G5EF15 whole entry): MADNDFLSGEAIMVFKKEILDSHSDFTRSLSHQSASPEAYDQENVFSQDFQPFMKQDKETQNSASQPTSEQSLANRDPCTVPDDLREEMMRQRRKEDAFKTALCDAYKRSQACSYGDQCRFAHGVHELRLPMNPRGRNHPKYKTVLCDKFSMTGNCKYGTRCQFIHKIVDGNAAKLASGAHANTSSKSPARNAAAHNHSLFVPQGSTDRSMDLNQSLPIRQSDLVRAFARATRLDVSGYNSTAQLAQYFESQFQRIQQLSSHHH

Chain of Cytochrome P450 3A4 (P08684 whole entry): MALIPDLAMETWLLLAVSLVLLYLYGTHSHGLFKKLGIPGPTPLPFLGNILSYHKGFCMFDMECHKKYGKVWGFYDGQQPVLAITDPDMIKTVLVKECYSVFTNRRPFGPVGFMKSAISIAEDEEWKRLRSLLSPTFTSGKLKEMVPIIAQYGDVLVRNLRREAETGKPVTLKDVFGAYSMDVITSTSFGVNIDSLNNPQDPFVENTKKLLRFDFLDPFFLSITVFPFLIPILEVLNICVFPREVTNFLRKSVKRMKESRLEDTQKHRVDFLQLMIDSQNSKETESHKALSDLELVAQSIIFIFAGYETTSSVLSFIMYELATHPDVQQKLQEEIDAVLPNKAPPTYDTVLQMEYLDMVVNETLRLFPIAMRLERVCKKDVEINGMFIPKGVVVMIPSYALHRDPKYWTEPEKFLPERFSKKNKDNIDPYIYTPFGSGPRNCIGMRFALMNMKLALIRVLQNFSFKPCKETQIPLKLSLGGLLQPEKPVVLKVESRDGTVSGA

## C=CCSSSCC=C [ALLITRIDIN]
Cytochrome P450 3A4
  AC50: 39.8 µM (inconclusive)

## CC(C)c1ccc(/C=C(\NC(=O)c2ccccc2)C(=O)NCCCn2ccnc2)cc1
[1]
  IC50: 15.8 µM (active)

## CC(C)CC#Cc1ccc2c(c1)O[C@@H](CN(C)Cc1cccc(F)c1)[C@H](C)CN([C@H](C)CO)S2(=O)=O
[2]
  AC50: 4.19 µM (active)
[3]
  AC50: 17.1 µM (active)

## Cc1nnc(NN/C=C2\C(=O)N(c3cccc(C(F)(F)F)c3)C(=O)c3ccccc32)nc1O
Large T antigen
  IC50: 15.2 µM (active)

## CC(C)c1c(O)ccc2c1CCC1[C@@](C)(CO)CCC[C@@]21C (some centres not stated)
Cytochrome P450 3A4
  AC50: 39.8 µM (inconclusive)

## CCCCCCC(Cl)(Cn1ccnc1)c1ccccc1 (configuration not stated)
[4]
  AC50: 8.5 µM (active)

## COc1ccccc1NC(=O)Cn1nnc(C(=O)NCc2cccs2)c1N
BJ [5]
  EC50: 1.41 µM (active)
[6]
  EC50: 1.18 µM (active)
[7]
  IC50: > 80 µM (inactive)
BJ [8]
  EC50: 19.3 µM (active)
BJ [9]
  EC50: 1.96 µM (active)

## O=C(OCC(=O)C12CC3CC(CC(C3)C1)C2)c1ccc(O)cc1
[4]
  AC50: 1.04 µM (active)

## Nc1cccc(N)c1
Cytochrome P450 3A4
  AC50: 31.6 µM (inconclusive)

## O=C(Nc1nc(-c2ccccc2)cs1)c1ccc(N2CCOCC2)c([N+](=O)[O-])c1
[7]
  IC50: 10.2 µM (active)
[10]
  AC50: 3.75 µM (active)
[11]
  EC50: > 60 µM (inconclusive)
[12]
  AC50: 1.59 µM (active)
[13]
  EC50: 0.895 µM (active)
[14]
  AC50: 3.52 µM (active)

## Oc1ccc(/C=N/N2CCN(c3ccccn3)CC2)cc1
Large T antigen
  IC50: 42.5 µM (active)

## Cc1cc(Sc2ncnc(N)c2[N+](=O)[O-])ncn1
[15]
  IC50: > 66 µM (inactive)
[16]
  EC50: 12.2 µM (active)
[10]
  AC50: 5.7 µM (active)
[17]
  EC50: 0.58 µM (active)
[12]
  AC50: 30.1 µM (active)
[18]
  EC50: 2.67 µM (inconclusive)
[19]
  AC50: 7.61 µM (active)
[14]
  AC50: 7.76 µM (active)
[20]
  IC50: > 66 µM (inactive)

## CN(C)C(=O)c1ccc(-c2ccc3c(c2)[C@@H]2[C@@H](CCN2C(=O)C2CCCC2)[C@H](CO)N3C)cc1
[2]
  AC50: 6.47 µM (active)
[3]
  AC50: > 39 µM (inactive)

## O=C(C[n+]1ccccc1)NN=Cc1cc(Br)cc(Br)c1O
Nonstructural protein 1
  IC50: 3.68 µM (active)

## Cc1nn(-c2ccccc2)c(N2CCCC2)c1/C=N/NC(=O)c1cc(-c2cccnc2)nc2ccccc12
[21]
  EC50: > 300 µM (not active)
[11]
  EC50: 32.8 µM (active)
[22]
  EC50: > 300 µM (not active)
[13]
  EC50: 0.306 µM (active)
